The numbers were not newly measured in US20190290552A1, “ETHANOLIC COMPOSITIONS COMPRISING PERFUME” (Conopco, Inc., d/b/a UNILEVER, priority 2016, published 2019), which cites them from elsewhere.

The structures appear in SMILES notation.

The conditions of this data set: taken from the Good Scents website.

In the case of `CC(C=O)Cc1ccc(C(C)(C)C)cc1` (centres unmarked) [Lilial], the LogKow is 3.6.

`C=C(C)[C@H]1CC=C(C)CC1` [Limonene]: the LogKow is 3.4.

With `O=C1CCCCCCCCCCCCO1` [Oxacyclotetradecan-2-one], the LogKow is 4.7.

Consider `C=CC(C)(CCC=C(C)C)OC(=O)CCC` (centres unmarked) [Linalyl Butyrate], for which the LogKow is recorded as 4.1.

On to `C=CC(C)(O)CCC=C(C)C` (centres unmarked) [Linalool], for which the LogKow is listed as 2.7.

Take `C=CC(C)(O)CCC=C(C)CC` (centres unmarked) [3,7-Dimethyl-1,6-nonadien-3-ol]: the LogKow was 3.7.

Regarding `CC1=CC[C@]2(C)CCCC(C)(C)[C@@]23C[C@@H]13` [Thujopsene], the LogKow is reported as 4.8.

Consider `CCCCCC1C(=O)CCC1CC(=O)OC` (centres unmarked) [Methyl dihydrojasmonate], for which the LogKow was 2.7.
